Where “and” joins values, the source holds several entries; their conditions need not be identical. Equal entries are not always repeated.
Test: In vitro pH-dependent release of each active agent from three-stage release capsules
Assay type: physicochemical
Conditions: individual capsules (Cap# 1-6)
Procedure: The capsules were designed to release the three drugs in a staged sequence controlled via pH-dependent coatings: uncoated diphenhydramine HCl for immediate release, coated zolpidem for release about 2 hours after administration, and coated lorazepam for release about 4 hours after administration.
Each capsule contained the following agents: (1) 50 mg of uncoated diphenhydramine HCl; (2) 5 mg of zolpidem tartrate in multiparticulate form coated with […]® L30 D-55, which dissolves at above pH 5.5 (with half-maximal drug release at pH 5.8 and maximal release at pH 6.3); and (3) 0.5 mg of lorazepam in multiparticulate form coated with […]® L/S 12.5 (1:1), which dissolves at above pH 6.5 (with half-maximal drug release at pH 7.2). The coatings were selected to achieve release of zolpidem tartrate with gastric emptying and release of lorazepam when the drug reaches the intestines.
Six capsules were individually tested in beakers for pH-dependent release of each active agent.

[1] = At 30 min in pH 2 (At time zero pH 2)
[2] = At 150 min in pH 6.4 (At 120 min changed to pH 6.4)
[3] = At 270 min in pH 7.2 (At 240 min changed to pH 7.2)

| Structure (SMILES) | % Release [1] | % Release (At 30 min in pH 2 (At time zero pH 2), listed as lorazepam) | % Release [2] | % Release (At 150 min in pH 6.4 (At 120 min changed to pH 6.4), listed as lorazepam) | % Release [3] | % Release (At 270 min in pH 7.2 (At 240 min changed to pH 7.2), listed as lorazepam) | % Release (At 30 min in pH 2 (At time zero pH 2), listed as diphenhydramine HCl) |
| --- | --- | --- | --- | --- | --- | --- | --- |
| O=C1Nc2ccc(Cl)cc2C(c2ccccc2Cl)=NC1O (racemic) [Lora, (RS)-7-Chloro-5-(2-chlorophenyl)-3-hydroxy-1,3-dihydro-2H-1,4-benzodiazepin-2-one] | 0% | neither zolpidem tartrate nor lorazepam was released | 0% | but not lorazepam, was released | 81.3% and 77.2% and 80.1% and 83.2% and 70.2% and 72.1% | more than 70% |  |
| CN(C)CCOC(c1ccccc1)c1ccccc1 [Diph, 2-(diphenylmethoxy)-N,N-dimethylethanamine] | 93.4% and 89.8% and 98.2% and 98.7% and 96.8% and 97.3% |  | 98.0% and 100% (3×) and 99.9% (2×) |  | 99.9% and 100% (2×) and 99.8% and 99.1% and 99.2% |  | more than 89% |

Reference: patent US9427409B2, “Composition and method for aiding sleep” (priority 2014, dated 2016)
